The subject of series [1] is DC-SIGN (+) and (−) CHO cells. As to the kind of experiment: in vitro transfection with glycopeptide DNA polyplexes. It counts as cell-based, human. Particulars: luciferase, 24 hrs. The procedure: DC-SIGN (+) CHO cells (1×10^5) were plated in 6-well plates in triplicate in 1 ml DMEM high glucose supplemented with 7% FBS and 1% MEM non-essential amino acids. After incubation for 24 hrs at 37° C. in 5% CO2, the media was removed, the cells were washed with 1 ml DPBS, replaced with 1 ml DMEM high glucose media supplemented with 2% FBS and 0.3% MEM non-essential amino acids.
Cells were transfected in triplicate for 24 hrs with pGL3 polyplexes (1 μg DNA and 0.6 nmol of glycopeptide in a total volume of 30 μl). The efficiency of glycopeptide DNA polyplex transfection was compared with PEI-DNA transfection performed by combining 1 μg DNA with 1.2 μg of PEI (N:P of 9) in 100 μl of 5 mM Hepes, 270 mM mannitol, pH 7.4. After 24 hrs, cells were washed with 2 ml of DPBS and lysed with 0.5 ml of lysis buffer (25 mM tris chloride, 1 mM EDTA, 8 mM magnesium chloride, 1% Triton X-100, pH 7.8) for 10 min at 4° C. […] The relative light units were determined with 10 sec integration after automatic injection of 100 μl of 0.43 mM D-luciferin. Protein concentrations were measured by a BCA assay with bovine serum albumin as a standard (Smith, P. K., Krohn, R. I., Hermanson, G. T., Mallia, A. K., Gartner, F. H., Provenzano, M. D., Fujimoto, E. K., Goeke, N. M., Olson, B. J., and Klenk, D. C. (1985) Measurement of protein using bicinchoninic acid. Anal Biochem 150, 76-85). […]

The subject of another series is Mice. As to the kind of experiment: IM-EP of Man9-(Acr-Lys)6 DNA in mice. It counts as in vivo. As to conditions: intramuscular electroporation, 1 μg DNA. The method, then: (§1) We tested Man9-N-glycan polyacridine peptides as a DNA vaccine adjuvant for use in combination with an intramuscular electroporation apparatus. […] The Man9-(Acr-Lys)6 (SEQ ID NO: 42) that we used for this study has the following structure of In certain embodiments the compound is Formula IVb: […]
The inventors obtained mouse data illustrating the electroporation apparatus expression of Man9-(Acr-Lys)6 (SEQ ID NO: 42) DNA (1 μg) at 0 and 0.012 nmoles of Man9-(Acr-Lys)6 (SEQ ID NO: 42) per μg of DNA (FIG. 32). The luciferase gene expression was equivalent at 0, 0.003 and 0.006 nmols of Man9 per μg of DNA, and then decreased at 0.0125 nmols of Man9 and higher. 0.0125 nmols of Man9-(Acr-Lys)6 (SEQ ID NO: 42) per μg of DNA corresponds 40 copies of Man9 per plasmid.

For another series, the system named is plasmid. As to the kind of experiment: DNA band shift assay of Man9-(Acr-Lys)6. In kind it is binding.
Description: as §1

Series [2] relates to pGL3. As to the kind of experiment: Man 9 glycopeptide DNA band shift assay. It counts as binding. As to conditions: agarose gel. The procedure: pGL3 (1 μg) was combined with 0.05, 0.2, 0.5, and 1 nmol of Man 9 glycopeptide. Each sample was incubated for 30 min before loading onto an agarose gel, that was electrophoresed at 80 V for 60 min (Adami, R. C., Collard, W. T., Gupta, S. A., Kwok, K. Y., Bonadio, J., and Rice, K. G. (1998) Stability of Peptide-Condensed Plasmid DNA Formulations. Journal of Pharmaceutical Sciences 87, 678-683). The gel was stained with 0.1 mg per ml of ethidium bromide at 4° C. for 24 hrs, then photographed while illuminating on a transilluminator.

Series [3] has as its system pGL3. The experiment in a line: thiazole orange displacement assay of Man 9 glycopeptide. It counts as binding. Particulars: pGL3 1 μg, 40 nM thiazole orange. The procedure: A control sample of pGL3 (1 μg) was combined with 40 nM thiazole orange in a total volume of 500 μl of 5 mM Hepes buffer pH 7.4. The Man 9 glycopeptide (0.2, 0.3, 0.4, 1 and 2 nmol) or Cys-(Acr-Lys)4 peptide (SEQ ID NO: 23) was added to pGL3 (1 μg) samples containing thiazole orange, and incubated for 30 min, followed by measuring the fluorescence intensity at excitation 500 nm and emission 530 nm (Wadhwa, M. S., Collard, W. T., Adami, R. C., McKenzie, D. L., and Rice, K. G. (1997) Peptide-mediated gene delivery: influence of peptide structure on gene expression. Bioconjugate Chemistry 8, 81-8). The percent fluorescence intensity relative to control was plotted versus the stoichiometry of glycopeptide or peptide added to DNA to determine the equivalence point.

Series [4] concerns DC-SIGN (+) and (−) CHO cells. As to the kind of experiment: Cy5-DNA glycopeptide polyplex uptake by FACS. It counts as cell-based, human. As to conditions: 24 hr 37° C. The method, then:
pGL3 plasmid (5 μg) was labeled with Label IT according to the manufacturer's instructions to prepare Cy5-DNA. The Man 9 glycopeptide (0.5 nmol) was combined with 1 μg Cy5-DNA in 60 μl of water and incubated for 30 min to form a polyplex. DC-SIGN (+) and (−) CHO cells (1×10^6) (Granelli-Pipemo, A., Pritsker, A., Pack, M., Shimeliovich, I., Arrighi, J. F., Park, C. G., Trumpfheller, C., Piguet, V., Moran, T. M., and Steinman, R. M. (2005) Dendritic Cell Specific Intercellular Adhesion Molecule 3-Grabbing Nonintegrin/CD209 Is Abundant on Macrophages in the Normal Human Lymph Node and Is Not Required for Dendritic Cell Stimulation of the Mixed Leukocyte Reaction. J Immunology 7, 4260-4273) were each plated in triplicate in 35 mm wells and grown in DMEM supplemented with 7% FBS and 1% nonessential amino acids for 24 hrs. CHO (+) and (−) cells were transfected for 24 hrs with 1 μg of Cy5-DNA polyplex. The CHO cells were lifted by treatment with 5 ml of 1 mM EDTA in PBS and concentrated by centrifugation by 2,000×g, before diluting to a final volume of 1 ml in PBS. The transfected CHO (+) and (−) cells were analyzed by FACS on a Becton Dickson LSRII with excitation 488 nm and emission 575 nm, and compared to untransfected CHO cells.

The conditions of series [5]: following i.v. dosing; Collard et al. 2000; cited from earlier work.
The test system of a further series is liver. The experiment in a line: hydrodynamic stimulation and bioluminescence imaging of luciferase expression. It counts as in vivo, mice. Particulars: 1 μg pGL3 dose, HD stimulation after 30 min, 24 hrs. The method, then:
pGL3 (1 μg) was prepared in a volume of normal saline corresponding to 9 wt/vol % of the mouse's body weight (1.8-2.25 ml based on 20-25 g mice). The DNA dose was administered by tail vein to 4-5 mice in 5 sec according to a published procedure (Liu F, Song Y, Liu D. Hydrodynamics-based transfection in animals by systemic administration of plasmid DNA. Gene Ther 1999; 6: 1258-1266; Zhang G, Budker V, Wolff J A. High levels of foreign gene expression in hepatocytes after tail vein injections of naked plasmid DNA. Human Gene Therapy 1999; 10: 1735-1737). Mice (4-5) were also dosed tail vein with 1 μg of PEGylated polyacridine polyplex in 50 μl of HBM (5 mM Hepes, 0.27 M mannitol, pH 7.4). At times ranging from 5-120 min, a stimulatory hydrodynamic dose of normal saline (9 wt/vol % of the body weight) was administered over 5 sec. At 24 hrs post-DNA dose, mice were anesthetized by 3% isofluorane, then administered an i.p. dose of 80 μl (2.4 mg) of D-luciferin (30 μg/μl in phosphate-buffered saline). At 5 min following the D-luciferin dose, mice were imaged for bioluminescence (BLI) on an IVIS Imaging 200 Series (Xenogen). BLI was performed in a light-tight chamber on a temperature-controlled, adjustable stage while isofluorane was administered by a gas manifold at a flow rate of 3%. Images were acquired at a ‘medium’ binning level and a 20 cm field of view. Acquisition times were varied (1 sec^−1 min) depending on the intensity of the luminescence. The Xenogen system reported bioluminescence as photons/sec/cm^2/seradian in a 2.86 cm diameter region of interest covering the liver. The integration area was transformed to pmols of luciferase in the liver using a previously reported standard curve (Rettig G et al. Quantitative Bioluminscence Imaging of Transgene Expression In Vivo. Analytical Biochemistry 2006; 335: 90-94). The results were determined to be statistically significant (p≦0.05) based on a two-tailed unpaired t-test.

“And” between values parts separate entries of the source, which are not always exact repeats. Equal values may be shown once. No end group written: not given here. Acr = acridine on the lysine ε-amine; PEG = not defined here

For “Cys-(Acr-Lys)4: DNA binding polyacridine peptide with N-terminal Cys, prepared with Fmoc-Lys(Acr); SEQ ID NO: 23”, the “selectivity of gene transfer for CHO (+) or (−) cells” value in series [1] is given as “did not demonstrate selectivity”.
For “Man9-(Acr-Lys)6: Iodoacetamide Man9 N-glycan reacted with Cys(Acr-Lys)6; Formula IVb (K(Acr)KK(Acr)KK(Acr)KK(Acr)KK(Acr)KK(Acr)K; not fully specified (N-terminus); also: Man9 N-glycan attached via iodoacetamide to a Cys not shown in chain)”, in the series with Mice, the “luciferase gene expression at 0, 0.003 and 0.006 nmols of Man9 per μg of DNA” value is reported as “equivalent”; the “luciferase gene expression at 0.0125 nmols of Man9 and higher” value is “decreased”. The “copies bound to plasmid” value with plasmid is reported as “up to 40 copies”.
As to “Man 9 glycopeptide: high mannose N-glycan Man 9 Mal (Tyr, propionate maleimide) conjugated to Cys-(Acr-Lys)4”, the “stoichiometry at which the band shift was complete” value in the series with pGL3 [2] is ≥ 0.4 nmol of glycopeptide per μg of DNA. Moreover, the “thiazole orange displacement, asymptote / equivalence point for polyplex formation” value in the series with pGL3 [3] is reported as 0.4 nmol per μg of DNA. For the same substance, the “cell uptake (fluorescence intensity), CHO (+) over CHO (−) cells” value in series [4] was 10-50 fold and ~10 fold.
Consider “PEG-Cys-Trp-Lys18: PEGylated polylysine peptide control, SEQ ID NO: 34 (C(PEG)WKKKKKKKKKKKKKKKKKK; reading uncertain)”, for which, in series [5], the “complete metabolism of plasmid DNA in the circulation” value is given as not above 3 min. The entries for the “stimulated luciferase expression of controls” value in the series with liver and in the series on liver (listed as PEGylated-Cys-Trp-Lys18) were “failed to produce measurable expression” and “no detectable luciferase expression”, respectively.

The values are drawn from patent publication US20120035320A1, “POLYACRIDINE NUCLEIC ACID DELIVERY PEPTIDE COMPLEXES” (University of Iowa Research Foundation, priority 2010, published 2012).
